For assay [1], the target named is T1, Acyl-CoA:cholesterol acyltransferase (ACAT) (Rattus norvegicus, UniProt Q7TQM4).
T1 construct: prepared from the microsomal fraction of mucosal cells from the small intestines of rats; from tissue; host or cells: microsomal fraction of small-intestinal mucosal cells, fasted 6-week-old male Sprague-Dawley rats
T1 sequence (Q7TQM4 1-524): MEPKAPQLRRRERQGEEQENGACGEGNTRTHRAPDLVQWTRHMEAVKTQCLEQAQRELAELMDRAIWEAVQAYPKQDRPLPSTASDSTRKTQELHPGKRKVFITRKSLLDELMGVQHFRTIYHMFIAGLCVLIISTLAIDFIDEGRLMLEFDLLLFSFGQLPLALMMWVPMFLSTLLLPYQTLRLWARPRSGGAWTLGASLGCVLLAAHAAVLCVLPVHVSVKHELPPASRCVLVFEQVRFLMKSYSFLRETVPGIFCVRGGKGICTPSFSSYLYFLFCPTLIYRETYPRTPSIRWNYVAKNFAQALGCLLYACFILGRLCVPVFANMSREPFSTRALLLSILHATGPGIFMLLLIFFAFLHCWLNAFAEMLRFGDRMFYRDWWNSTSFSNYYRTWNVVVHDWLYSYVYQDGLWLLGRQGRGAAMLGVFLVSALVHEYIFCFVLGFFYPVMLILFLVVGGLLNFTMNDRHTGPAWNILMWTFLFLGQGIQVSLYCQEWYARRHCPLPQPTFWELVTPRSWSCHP
Briefly: ACAT inhibitory action: labeled cholesterol ester formation from [1-14C]oleoyl-CoA and endogenous cholesterol, small-intestinal mucosal microsomal enzyme. The format is biochemical, rat (Sprague-Dawley). Particulars: 10^-6 M; read-out: ACAT inhibitory rate (%). The procedure:
In accordance with the method disclosed by Heider et al. on Journal of Lipid Research, 24, p.1127 (1983), an enzyme sample ACAT was prepared from the microsomal fraction of mucosal cells from the small intestines of rats (6-week old male Sprague-Dawleys) fasted for 20 hours.
The ACAT activity was determined by, in accordance with the method disclosed by Helgerud et al. on Journal of Lipid Research 22, p.271 (1981), measuring the amount of labeled cholesterol ester from [1-^14 C]oleoyl-CoA and endogenous cholesterol.
(1) In Table 2, the labeled cholesterol ester formation inhibitory rate (%) determined when supplemented with 10^-6 M of a test compound (a representative one of the compounds obtained in the following Examples 1 to 24) is shown as the index of ACAT inhibitory activity.

Assay [2] has as its system hypercholesterolemic ICR mice. Briefly: Hypocholesterolemic (cholesterol-lowering) activity in mice fed a high cholesterol-cholic acid diet. The format is in vivo, mouse (ICR). Conditions: serum, vs control. How it is done:
Groups of 6 ICR mice (2 subgroups of 3 mice) were made hypercholesterolemic by being fed a high cholesterol-cholic acid diet for 7 days and administered with test compounds orally on the last two days. One-half of the total dose was given on day 6 followed by the other half on day 7. After fasting overnight (16 hours after the last dose), the animals were sacrificed and sera were collected together for the each subgroup for measuring the levels of cholesterol and heparin precipitating lipoproteins (HPL). Both cholesterol and HPL levels were measured with autoanalyzer by the enzymatic CHOD-PAP method for the former and by the turbidimetric method of Shurr et. al. [in C. E. Dau ed. Atherosclerosis Drug Discovery, Plenum Publishing, New York, pp.215-229 & 231-249, 1976.] for the latter.

Assay [3] concerns the target T1, Acyl-CoA:cholesterol acyltransferase (ACAT). Description: ACAT inhibitory action: labeled cholesterol ester formation from [1-14C]oleoyl-CoA and endogenous cholesterol, small-intestinal mucosal microsomal enzyme. Type of assay: biochemical, rat (Sprague-Dawley). Particulars: 10^-8 M; read-out: ACAT inhibitory rate (%) (in parentheses).
The mark [4] stands for this setting: 30 mg/kg po (total dose, halves on day 6 and 7).
Where [5] appears, read: 1 mg/kg po (total dose, halves on day 6 and 7).
Where [6] appears, read: 10 mg/kg po (total dose, halves on day 6 and 7).

For `Cc1ccccc1-c1c(CC(=O)Nc2c(C(C)C)cccc2C(C)C)oc2ccc(Cl)cc12` [Example 1, N-[2,6-Bis(1-methylethyl)phenyl]-5-chloro-3-(2-methylphenyl)-2-benzofuranacetamide], the inhibition at 1 µM in assay [1] is 99.2%. In assay [2] (setting [4]), the “Reduction % HPL (heparin precipitating lipoproteins)” value is 27% and the Reduction % cholesterol was 32%. Also, the inhibition at 0.01 µM in assay [3] was 93.7%.
On to `COc1cccc(OC)c1NC(=O)Cc1oc2ccc(Cl)cc2c1-c1ccccc1C` [Example 2, 5-Chloro-N-(2,6-dimethoxyphenyl)-3-(2-methylphenyl)-2-benzofuranacetamide], for which the inhibition at 1 µM in assay [1] worked out at 98.8%.
Same read-out and setting: then `Cc1cc(C)c(NC(=O)Cc2oc3ccc(Cl)cc3c2-c2ccccc2C)c(C)c1` [Example 3, 5-Chloro-3-(2-methylphenyl)-N-(2,4,6-trimethylphenyl)-2-benzofuranacetamide], with 90.8%.
The same measure, in the same setting: then `CC(C)c1cccc(C(C)C)c1NC(=O)Cc1oc2ccc(Cl)cc2c1-c1ccccc1` [Example 4, N-[2,6-Bis(1-methylethyl)phenyl]-5-chloro-3-phenyl-2-benzofuranacetamide], with 99%; and `COc1cccc(OC)c1NC(=O)Cc1oc2ccc(Cl)cc2c1-c1ccccc1` [Example 5, 5-Chloro-N-(2,6-dimethoxyphenyl)-3-phenyl-2-benzofuran acetamide], with 93.2%; and `Cc1ccccc1-c1c(CC(=O)Nc2c(C(C)C)cccc2C(C)C)n(C)c2ccc(Cl)cc12` [Example 7, N-[2,6-Bis(1-methylethyl)phenyl]-5-chloro-1-methyl-3-(2-methylphenyl)-2-indoleacetamide], with 92.3%.
On the same count and under the same terms, then `COc1cccc(OC)c1NC(=O)Cc1c(-c2ccccc2C)c2cc(Cl)ccc2n1C` [Example 8, 5-Chloro-N-(2,6-dimethoxyphenyl)-1-methyl-3-(2-methylphenyl)-2-indoleacetamide], with 91.2%.
Turning to `Cc1ccccc1-c1c(NC(=O)Nc2c(C(C)C)cccc2C(C)C)oc2ccc(Cl)cc12` [Example 11, N-[2,6-Bis(1-methylethyl)phenyl]-N'-[5-chloro-3-(2-methylphenyl)-2-benzofuryl]urea], the inhibition at 1 µM in assay [1] came to 99.1%. Further, the entries for the “Reduction % HPL (heparin precipitating lipoproteins)” value in assay [2] (setting [5]) and in assay [2] (setting [6]) were 27% and 38%, respectively. In addition, the Reduction % cholesterol in assay [2] (setting [5]) was 28%; in assay [2] (setting [6]) it was 31%. The inhibition at 0.01 µM in assay [3] was 92.2%.
For `CCOc1cccc(OCC)c1NC(=O)Cc1oc2ccc(Cl)cc2c1-c1ccccc1C` [Example 16, 5-Chloro-N-(2,6-diethoxyphenyl)-3-(2-methylphenyl)-2-benzofuranacetamide], in assay [1], the inhibition at 1 µM is 98.1%. Also, the inhibition at 0.01 µM in assay [3] was found to be 50.3%.
Take `Cc1ccccc1-c1c(CC(=O)Nc2c(F)cc(F)cc2F)oc2ccc(Cl)cc12` [Example 17, 5-Chloro-3-(2-methylphenyl)-N-(2,4,6-trifluorophenyl)-2-benzofuranacetamide]: the inhibition at 1 µM in assay [1] amounted to 92.9%.
Same read-out and setting: then `Cc1ccccc1-c1c(NC(=O)Nc2c(F)cc(F)cc2F)oc2ccc(Cl)cc12` [Example 18, N-[5-Chloro-3-(2-methylphenyl)-2-benzofuryl]-N'-(2,4,6-trifluorophenyl)urea], with 90.1%.
Consider `COc1cccc(OC)c1NC(=O)Nc1oc2ccc(Cl)cc2c1-c1ccccc1C` [Example 19, N-[5-Chloro-3-(2-methylphenyl)-2-benzofuryl]-N'-(2,6-dimethoxyphenyl)urea], for which the inhibition at 1 µM in assay [1] is 99%. The inhibition at 0.01 µM in assay [3] came out at 28.8%.
As to `CCOc1cccc(OCC)c1NC(=O)Nc1oc2ccc(Cl)cc2c1-c1ccccc1C` [Example 20, [5-Chloro-3-(2-methylphenyl)-2-benzofuryl]-N'-(2,6-diethoxyphenyl)urea], the inhibition at 1 µM in assay [1] worked out at 99.4%. Moreover, the inhibition at 0.01 µM in assay [3] was found to be 39.9%.

The values above are taken from US5492929A, “Condensed heterocyclic compounds useful for inhibiting acyl-CoA” (Takeda Chemical Industries, Ltd., priority 1992, dated 1996).
